Test results: PubChem BioAssay AID330 (DTP/NCI, 2004)
Where “and” joins values, the source holds several entries; their conditions need not be identical. Identical values can stand only once. Inconclusive results and toxic doses are left out. The calls were made as follows: active = survival T/C of 150% or more; inactive = T/C below 125% in these data.

System: P388 leukemia ip, CD2F1 mice, survival T/C
Assay: NCI In Vivo Anticancer Drug Screen. Data for tumor model P388 Leukemia (intraperitoneal) in CD2F1 (CDF1) mice
Details: endpoint: median survival time, higher = longer survival
Summary of the method: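 Mice carrying the transplanted tumor received test compound or vehicle. Survival was recorded in each group, and the value is the treated-group measurement divided by that of the vehicle-treated control group.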

[1] = dose: 50.0 mg/kg/injection, schedule: Q01DX005 (ip), vehicle: saline with Tween-80
[2] = dose: 100.0 mg/kg/injection, schedule: Q01DX005 (ip), vehicle: saline with Tween-80
[3] = dose: 200.0 mg/kg/injection, schedule: Q01DX005 (ip), vehicle: saline with Tween-80
[4] = dose: 12.5 mg/kg/injection, schedule: Q01DX005 (ip), vehicle: saline
[5] = dose: 25.0 mg/kg/injection, schedule: Q01DX005 (ip), vehicle: saline
[6] = dose: 50.0 mg/kg/injection, schedule: Q01DX005 (ip), vehicle: saline
[7] = dose: 60.0 mg/kg/injection, schedule: Q01DX005 (ip), vehicle: saline with Tween-80
[8] = dose: 120.0 mg/kg/injection, schedule: Q01DX005 (ip), vehicle: saline with Tween-80
[9] = dose: 100.0 mg/kg/injection, schedule: Q01DX009 (ip), vehicle: saline with Tween-80
[10] = dose: 200.0 mg/kg/injection, schedule: Q01DX009 (ip), vehicle: saline with Tween-80
[11] = dose: 100.0 mg/kg/injection, schedule: Q01DX005 (ip), vehicle: saline
[12] = dose: 50.0 mg/kg/injection, schedule: Q01DX009 (ip), vehicle: saline with Tween-80
[13] = dose: 50.0 mg/kg/injection, schedule: Q01DX009 (ip), vehicle: Klucel (hydroxypropylcellulose) (HPC)

Measured: T/C

C=CC(C)(CCC1C(C)=CCC2C(C)(C)CCCC12C)OC1OC(C)C(O)C(O)C1O (stereo not given)
inactive: dose: 19.0 mg/kg/injection, schedule: Q01DX005 (ip), vehicle: Klucel (hydroxypropylcellulose) (HPC) 102 % of control | dose: 20.0 mg/kg/injection, schedule: Q01DX005 (ip), vehicle: Klucel (hydroxypropylcellulose) (HPC) 97 % of control | dose: 21.0 mg/kg/injection, schedule: Q01DX005 (ip), vehicle: Klucel (hydroxypropylcellulose) (HPC) 100 % of control | dose: 38.0 mg/kg/injection, schedule: Q01DX005 (ip), vehicle: Klucel (hydroxypropylcellulose) (HPC) 101 % of control | dose: 40.0 mg/kg/injection, schedule: Q01DX005 (ip), vehicle: Klucel (hydroxypropylcellulose) (HPC) 103 % of control | dose: 42.0 mg/kg/injection, schedule: Q01DX005 (ip), vehicle: Klucel (hydroxypropylcellulose) (HPC) 98 % of control | dose: 76.0 mg/kg/injection, schedule: Q01DX005 (ip), vehicle: Klucel (hydroxypropylcellulose) (HPC) 98 % of control | dose: 80.0 mg/kg/injection, schedule: Q01DX005 (ip), vehicle: Klucel (hydroxypropylcellulose) (HPC) 98 % of control | dose: 84.0 mg/kg/injection, schedule: Q01DX005 (ip), vehicle: Klucel (hydroxypropylcellulose) (HPC) 102 % of control | dose: 152.0 mg/kg/injection, schedule: Q01DX005 (ip), vehicle: Klucel (hydroxypropylcellulose) (HPC) 108 % of control | dose: 160.0 mg/kg/injection, schedule: Q01DX005 (ip), vehicle: Klucel (hydroxypropylcellulose) (HPC) 93 % of control | dose: 168.0 mg/kg/injection, schedule: Q01DX005 (ip), vehicle: Klucel (hydroxypropylcellulose) (HPC) 98 % of control

CCCCCCC(CCCCCC)=NO
inactive: [1] 95 % of control | [2] 113 % of control | [3] 104 % of control

N=c1nc(N)ncn1-c1ccccc1
inactive: dose: 1.56 mg/kg/injection, schedule: Q01DX005 (ip), vehicle: saline with Tween-80 99 % of control and 102 % of control | dose: 3.13 mg/kg/injection, schedule: Q01DX005 (ip), vehicle: saline with Tween-80 103 % of control and 104 % of control | dose: 6.25 mg/kg/injection, schedule: Q01DX005 (ip), vehicle: saline with Tween-80 99 % of control and 102 % of control | dose: 12.5 mg/kg/injection, schedule: Q01DX005 (ip), vehicle: saline with Tween-80 102 % of control and 104 % of control and 108 % of control

O=[N+]([O-])c1ccc2c(c1)c(S(=O)(=O)O)cc1nonc12
inactive: [4] 98 % of control | [5] 95 % of control | [1] 95 % of control | [6] 90 % of control | [3] 93 % of control

CN1c2ccccc2C(=O)N2C(=O)CCC21C (stereo not given)
inactive: [7] 102 % of control | [8] 88 % of control

O=c1nc2n(CC(O)CN3CCCCC3)c3cc(Cl)ccc3nc-2c(=O)[nH]1 (stereo not given)
inactive: dose: 6.25 mg/kg/injection, schedule: Q01DX005 (ip), vehicle: saline 103 % of control | [4] 106 % of control

Cc1ccc(S(=O)(=O)N2CCC2)cc1
inactive: [9] 90 % of control | [10] 95 % of control | dose: 400.0 mg/kg/injection, schedule: Q01DX009 (ip), vehicle: saline with Tween-80 100 % of control

O=C1C(O)=C(Cl)C(=O)C(O)=C1Cl
inactive: [4] 111 % of control | [5] 101 % of control | [6] 110 % of control | [11] 90 % of control

CCCCn1c(C)nc2cc(C(F)(F)F)cc(N)c21
inactive: [12] 99 % of control | [9] 101 % of control | [10] 108 % of control

O=Nc1ccc(Cn2cc(Br)c(=O)[nH]c2=O)o1
inactive: dose: 25.0 mg/kg/injection, schedule: Q01DX001 (ip), vehicle: Klucel (hydroxypropylcellulose) (HPC) 113 % of control | dose: 50.0 mg/kg/injection, schedule: Q01DX001 (ip), vehicle: Klucel (hydroxypropylcellulose) (HPC) 100 % of control | dose: 100.0 mg/kg/injection, schedule: Q01DX001 (ip), vehicle: Klucel (hydroxypropylcellulose) (HPC) 108 % of control

CN(CCO)c1ncnc2c1ncn2C
inactive: [6] 99 % of control | [11] 108 % of control | dose: 200.0 mg/kg/injection, schedule: Q01DX005 (ip), vehicle: saline 100 % of control

CSCNC(=S)Nc1ccc(Cl)cc1
inactive: [13] 94 % of control

Nc1nc(N)nc(-c2cccnc2)n1
inactive: dose: 100.0 mg/kg/injection, schedule: Q01DX001 (ip), vehicle: saline 109 % of control | dose: 200.0 mg/kg/injection, schedule: Q01DX001 (ip), vehicle: saline 118 % of control | dose: 400.0 mg/kg/injection, schedule: Q01DX001 (ip), vehicle: saline 100 % of control

Cc1onc(-c2c(F)cccc2Cl)c1C(=O)N[C@@H]1C(=O)N2[C@@H]1SC(C)(C)[C@@H]2C(=O)O
inactive: dose: 50.0 mg/kg/injection, schedule: Q01DX009 (ip), vehicle: saline 102 % of control | dose: 100.0 mg/kg/injection, schedule: Q01DX009 (ip), vehicle: saline 105 % of control | dose: 200.0 mg/kg/injection, schedule: Q01DX009 (ip), vehicle: saline 107 % of control

ClC1CCC[N-]C1.ClC1CCC[N-]C1.[Cl][Pt+2][Cl] (stereo not given)
inactive: dose: 0.78 mg/kg/injection, schedule: Q01DX009 (ip), vehicle: saline 97 % of control | dose: 1.56 mg/kg/injection, schedule: Q01DX009 (ip), vehicle: saline 97 % of control | dose: 3.13 mg/kg/injection, schedule: Q01DX009 (ip), vehicle: saline 101 % of control | dose: 6.25 mg/kg/injection, schedule: Q01DX009 (ip), vehicle: saline 96 % of control | dose: 12.5 mg/kg/injection, schedule: Q01DX009 (ip), vehicle: Klucel (hydroxypropylcellulose) (HPC) 118 % of control and 123 % of control | dose: 12.5 mg/kg/injection, schedule: Q01DX009 (ip), vehicle: saline 108 % of control | dose: 25.0 mg/kg/injection, schedule: Q01DX009 (ip), vehicle: Klucel (hydroxypropylcellulose) (HPC) 121 % of control | [13] 101 % of control and 122 % of control

CC(=O)Nc1ccc2c3c(cccc13)CC2
inactive: [13] 101 % of control | dose: 100.0 mg/kg/injection, schedule: Q01DX009 (ip), vehicle: Klucel (hydroxypropylcellulose) (HPC) 106 % of control | dose: 200.0 mg/kg/injection, schedule: Q01DX009 (ip), vehicle: Klucel (hydroxypropylcellulose) (HPC) 108 % of control

NC1[N-]C(C2CCCC[N-]2)CC2CCCCC21.NC1[N-]C(C2CCCC[N-]2)CC2CCCCC21.O=[N+]([O-])O.[Cu+2] (stereo not given)
inactive: dose: 6.25 mg/kg/injection, schedule: Q04DX002 (ip), vehicle: suspension in saline 108 % of control | dose: 12.5 mg/kg/injection, schedule: Q04DX002 (ip), vehicle: suspension in saline 109 % of control

O=C(CCCO)c1nc2ccccc2s1
inactive: dose: 60.0 mg/kg/injection, schedule: Q01DX005 (ip), vehicle: Klucel (hydroxypropylcellulose) (HPC) 106 % of control | dose: 120.0 mg/kg/injection, schedule: Q01DX005 (ip), vehicle: Klucel (hydroxypropylcellulose) (HPC) 101 % of control | dose: 240.0 mg/kg/injection, schedule: Q01DX005 (ip), vehicle: Klucel (hydroxypropylcellulose) (HPC) 100 % of control

CCC(O)C1Sc2ccccc2N1C (stereo not given)
inactive: [7] 104 % of control | [8] 101 % of control | dose: 240.0 mg/kg/injection, schedule: Q01DX005 (ip), vehicle: saline with Tween-80 106 % of control

Nc1ccc(OCCNS(=O)(=O)c2cccc(S(=O)(=O)F)c2)c(Cl)c1
inactive: dose: 37.5 mg/kg/injection, schedule: Q01DX001 (ip), vehicle: saline with Tween-80 95 % of control | dose: 75.0 mg/kg/injection, schedule: Q01DX001 (ip), vehicle: saline with Tween-80 95 % of control | dose: 150.0 mg/kg/injection, schedule: Q01DX001 (ip), vehicle: saline with Tween-80 90 % of control

CN(/N=C/c1ccc2c(c1)OCO2)C(=O)c1ccccc1N
inactive: [12] 108 % of control | [9] 114 % of control | [10] 116 % of control

COc1ccc2c(c1)OCCN(C)OC2c1cccc(Cl)c1 (stereo not given)
inactive: [1] 107 % of control | [2] 99 % of control | [3] 92 % of control

CC(=NC(C)(C)C)N1CCOCC1
inactive: dose: 50.0 mg/kg/injection, schedule: Q01DX009 (ip), vehicle: saline + Tween-80 + alcohol 101 % of control | dose: 100.0 mg/kg/injection, schedule: Q01DX009 (ip), vehicle: saline + Tween-80 + alcohol 100 % of control | dose: 200.0 mg/kg/injection, schedule: Q01DX009 (ip), vehicle: saline + Tween-80 + alcohol 88 % of control

COc1cc(NCC(C)(O)CN2CCCC(C)C2C)c2ncccc2c1 (stereo not given)
inactive: [4] 97 % of control | [5] 101 % of control | [6] 112 % of control
